Experimental findings from patent US10966937B2, “Compositions and methods for delivery of polyunsaturated fatty acid derivatives and analogs” (Cytometix, Inc., priority 2015, dated 2021) are described below.

The subject of data set [1] is rodent model of spinal nerve ligation. Briefly: Spinal nerve ligation model, mechanical allodynia, CMX-020 and Duloxetine. Format: in vivo, male Sprague Dawley rats. The method, then: In FIGS. 14 and 15, groups of male Sprague Dawley rats underwent a spinal nerve ligation method of the left L5 and L6 spinal nerves, inducing a model of peripheral neuropathic pain. 1 weeks later treatment with CMX-020 and Duloxetine were administered either alone or in combination at various combinational doses and efficacy was tested using mechanical allodynia pain thresholds (Von Frey Filaments, up-down method). The method of Chou-Talalay and CompuSyn computer software were used to automate analysis of dose effect data for each individual drug and their combination. […] The fold reduction of Duloxetine in combination with CMX-020 is greater than 2-fold in efficacy ranges at and greater than 20% (FIG. 15).

For data set [2], the system named is rodent model of Chemotherapeutic induced pain. Briefly: Chemotherapeutic (paclitaxel) induced pain model, mechanical allodynia, CMX-020 and Duloxetine. It counts as in vivo, male Sprague Dawley rats. The method, then: In FIGS. 16 and 17, groups of male Sprague Dawley rats received four daily consecutive injections of paclitaxel (1 mg/kg, ip), followed by a second series of four daily injections one week after the first injection, inducing a model of chemotherapeutic-induced peripheral neuropathy Animals were tested 2-3 days after receiving the last injection of paclitaxel with treatment of CMX-020 and Duloxetine administered either alone or in combination at various combinational doses and efficacy was tested using mechanical allodynia pain thresholds (Von Frey Filaments, up-down method). The method of Chou-Talalay and CompuSyn computer software were used to automate analysis of dose effect data for each individual drug and their combination. […] The fold reduction of Duloxetine in combination with CMX-020 is greater than 2-fold in efficacy ranges at and greater than 20% (FIG. 17).

The subject of data set [3] is rodent model of osteoarthritis. In words: Rodent model of osteoarthritis (MIA), mechanical allodynia, CMX-020 and Tramadol. It counts as in vivo, male Sprague Dawley rats.
Data set [4] relates to rodent model of fibromyalgia. Briefly: Rodent model of fibromyalgia (reserpine), mechanical allodynia, CMX-020 and Pregabalin. Format: in vivo, male Sprague Dawley rats.
Data set [5] in a line: clinical. As to conditions: both, human, in vivo, po.
The nature of data set [6]: Plasma exposure of CMX-020 from enterically coated softgels with DHA TG vehicle. Format: in vivo, male cynomolgus monkey. The method, then: In FIG. 5, groups of male cynomolgus monkey were administered CMX-020 (40 mg total dose) in enterically coated softgels at 10, 5 and 2.5% (w/w) using high purity DHA in triglyceride form as the delivery vehicle. CMX-020 was measured through time in plasma to determine its concentrations. FIG. 5 illustrates that the systemic exposure of CMX-020 in DHA TG at various concentrations provides suitable systemic exposure for more than 12 hours. In this study, the optimal concentration was 5% displaying an absolute bioavailability of 20%.

Data set [7] relates to post-operative pain model. In words: Post-operative pain model (hindpaw incision), mechanical allodynia (Von Frey filament). It counts as in vivo, male Sprague Dawley rats. The conditions noted are these: CMX-020 intraduodenally at various doses in DHA TG, 3 hours post-surgery. The method, then: In FIG. 7, groups of male Sprague Dawley rats were administered CMX-020 intraduodenally at various doses using high purity DHA in triglyceride form as the delivery vehicle. CMX-020 was measured in plasma to determine its concentrations immediately after the efficacy endpoint. Prior to administration, the rat's hindpaw was surgically incised and sutured. 3 hours post-surgery the rats were subjected to mechanical allodynia (Von Frey filament) assessment to quantify the analgesic effect of CMX-020 (% MPE=post drug threshold−baseline threshold/cutoff threshold−baseline threshold×100).

The mark [8] stands for this setting: efficacy ranges at and greater than 20%.

In the case of `CNCC[C@H](Oc1cccc2ccccc12)c1cccs1` [Duloxetine, reference compound], the “fold reduction of Duloxetine in combination with CMX-020” value in data set [1] (setting [8]) and in data set [2] (setting [8]) was “greater than 2 fold” throughout.

In the case of `COc1cccc(C2(O)CCCCC2CN(C)C)c1` (stereo not drawn) [Tramadol, reference compound], the “fold reduction of Tramadol in combination with CMX-020” value in data set [3] (efficacy ranges at and greater than 10%) was “greater than 2 fold”.

A word on the Tmax: it is the time from dosing to the highest level. As a reminder, the bioavailability is dose-corrected exposure relative to a reference, in per cent. Regarding `CCCCCC(=O)N(CC/C=C\C/C=C\C/C=C\CCCC(=O)NC1CC1)C(C)C` [CMX-020], the “analgesic effect of the combinational therapy (isobologram)” value in data set [4] (co-administered with Pregabalin) is reported as “greater than a simple additive effect”; in data set [1] (in combination with Duloxetine), “greater than a simple additive effect”; in data set [2] (in combination with Duloxetine), “greater than a simple additive effect”; in data set [3] (in combination with Tramadol, 2 weeks after MIA) it was “greater than a simple additive effect”. In data set [5], the Tmax lay within 3.5 to 5.5 h. In data set [6] (CMX-020 40 mg total dose at 10, 5 and 2.5% (w/w) in DHA TG, monkey), the “duration of suitable systemic exposure” value is given as “more than 12 hours”. Moreover, in data set [6] (male, cynomolgus monkey, plasma, oral, CMX-020 40 mg total dose, 5% (w/w) in DHA TG, read-out: absolute bioavailability), the bioavailability is 20%. In addition, the “relation of systemic exposure to analgesic efficacy (% MPE)” value in data set [7] was “positively correlates”.

With `CC(C)C[C@H](CN)CC(=O)O` [Pregabalin, reference compound], in data set [4] (efficacy ranges at and greater than 35%), the “fold reduction of Pregabalin in combination with CMX-020” value is on record as “greater than 2 fold”.
